Measured values reported in patent US11564948B2, “Therapeutic methods using erythrocytes” (Sangui Bio Pty Ltd, priority 2015, dated 2023).

Test system: MIF
Assay: RBCs or RBC ghosts cultured in plasma with heparin or EDTA, MIF ELISA (Example 1)
Type: cell-based, human
Conditions: addition of EDTA to the cell suspensions, compared with heparin treatment; FIG. 2
Procedure: To determine if the presence of anticoagulants alter the capacity for protein binding to red blood cells, these cells were incubated in plasma with or without heparin or EDTA. Whole blood from healthy volunteers was collected into EDTA vacutainers (3 mg/mL). Plasma was collected from blood collected into hepain and citrate vacutainers. […] The ghosts were then isolated by centrifugation (16,000 g, 20 minutes) and were resuspended in PBS. […] The red blood cells or ghosts were then cultured for 0, 1, or 18 hours at 37° C. As controls, EDTA plasma containing heparin or EDTA were culture under the same conditions. Following incubation, the cell free supernatants was collected and stored at −80° C. Prior to analysis, samples were subjected to ×3 freeze-thaw cycles. MIF concentration of the samples was quantified using a MIF ELISA.

Compound: O=C(O)CN(CCN(CC(=O)O)CC(=O)O)CC(=O)O [EDTA, ethylenediaminetetraacetic acid]
- MIF in the RBC lysates and ghosts 'lysates': substantially less
